The source of these data is patent publication US20220296635A1 (Board of Regents, The University of Texas System, priority 2013, published 2022).

Assay [1] concerns Bone marrow stromal cells (BMSCs). As to the kind of experiment: Calcium nodule formation in BMSC cultures (Von Kossa staining). The format is cell-based, Sprague-Dawley rats. Particulars: 12 days of osteogenic induction. How it is done:
Methods of promoting bone growth according to some embodiments described herein were carried out as follows. Bone marrow stromal cells (BMSCs) derived from 6 week old male Sprague-Dawley rats were cultured in growth medium containing Minimum Essential Medium Alpha (αMEM) supplemented with 10% (V/V) fetal bovine serum (FBS), 0.25 μg/mL Fungizone, and 1% (V/V) penicillin and streptomycin in 6-well plates at a density of 2×10^5 cells/well (Day 0). […] After 12 days of osteogenic induction, the BMSCs cultures were stained with Von Kossa staining and imaged by optical microscopy. The numbers of calcium nodules per well were counted in the inverted microscope. The total area of the calcium nodules was also calculated. FIG. 6A illustrates microscope images of Von Kossa staining. FIG. 6B illustrates the number of observed calcium nodules. FIG. 6C illustrates the total area of the calcium nodules.

The next assay has as its system osteopontin (OPN). The assay is described as follows: Osteopontin protein level in hMSCs by Western Blot. In kind it is cell-based, Human. Particulars: 20 μM, 200 μM or 2000 μM citrate; 7 days and 14 days. How it is done:
Methods of promoting bone growth according to some embodiments described herein were carried out as follows. Human mesenchymal stem cells (hMSCs) (Lonza Walkersville Inc., USA) were cultured in Dulbecco's Modified Eagle's Medium (DMEM) supplemented with 10% FBS and 1% penicillin and streptomycin. For differentiation, hMSCs were switched to an osteogenic medium (OGM) comprising the previous DMEM-based medium further supplemented with […] β-glycerophosphate and 50 μM ascorbic acid-2-phosphate. The hMSC cells were seeded at a density of 10^4 cells/mL after 80-90% confluence in 96-well plates. […] Media were changed every other day.

In assay [2] the test system is Human mesenchymal stem cells (hMSCs). As to the kind of experiment: Calcium deposit formation in differentiated hMSC cultures (Von Kossa staining). To be noted: 20 μM citrate, osteogenic medium; 7, 14 and 21 days. In kind it is cell-based. How it is done:
Methods of promoting bone growth according to some embodiments described herein were carried out as follows. Human mesenchymal stem cells (hMSCs) (Lonza Walkersville Inc., USA) were cultured in Dulbecco's Modified Eagle's Medium (DMEM) supplemented with 10% FBS and 1% penicillin and streptomycin. […] The hMSC cells were seeded at a density of 10^4 cells/mL after 80-90% confluence in 96-well plates. […] Media were changed every other day.

For assay [3], the system named is osteosarcoma cells (Saos-2 cells). As to the kind of experiment: Saos-2 cell proliferation (MTT assay). The format is cell-based. How it is done: Methods of inhibiting cancer growth according to some embodiments described herein were carried out as follows. […] Human mesenchymal stem cells (hMSCs) (Lonza Walkersville Inc., USA) were cultured in growth medium composed of Dulbecco's Modified Eagle's Medium (DMEM) supplemented with 10% FBS and 1% penicillin/streptomycin and then seeded in a 96-well plates at a density of 10^4 cells/mL after 80-90% confluence. […] The hMSCs were incubated with the citrate-supplemented media at 37° C. with 5% CO2. Media were changed every other day. […] After incubating at 37° C. for 4 hrs in MTT working solution, the hMSCs in the 96-well plates were submerged in dimethylsulfoxide (DMSO) for 15 minutes on an orbital shaker under dark conditions. The 96-well plates were then placed on a Micro-plate Reader to obtain absorbance values at 595 nm. In addition, live/dead staining was carried out at pre-determined time points (1 day, 4 days, and 7 days). The hMSCs were stained with live/dead working solution (Life Technologies Inc., USA) for 30 minutes and then observed under a Nikon Inverted Fluorescence Microscope to determine cell viability.
The hMSCs were cultured as described above. The Saos-2 cells were cultured in McCoy's 5A medium (Lonza Walkersville Inc., USA) supplemented with 10% FBS and 1% penicillin/streptomycin. […]
A general note: Tetrazolium assays rely on reduction of a dye to a coloured formazan, in cell work by metabolically active cells.

For the compound `O=C(O)CC(O)(CC(=O)O)C(=O)O` [citrate, citric acid], in assay [1] (citrate concentration of 20 μM), the “number and size of calcium nodules” value is given as “induced the highest number of calcium nodules”. Moreover, in assay [1] (citrate-supplemented osteogenic media (2 μM to 5 mM citric acid)), the calcium nodule formation entry is “promoted calcium module formation in a dose-dependent manner”. For the same compound, the OPN expression result in the assay with osteopontin (OPN) is “closely associated in a dose-dependent relationship”. For the same compound, in assay [2], the calcium deposit formation entry is on record as “able to promote calcium deposit formation”. Further, the Saos-2 cell proliferation entry in assay [3] (concentrations above 800 μM, 1 day and 4 days) is “inhibit Saos-2 cell proliferation”. The Saos-2 cell killing result in assay [3] (concentrations above 2000 μM) is recorded as “most Saos-2 cells were killed”.
